Common to all, as to type: cell-based, rat
For assay [1], the system named is CREB. The assay is described as follows: CREB levels in severed axons by immunofluorescence. The following applies: severed axons, inhibitor present during NGF removal. How it is done:
FIGS. 7A-B are results showing the axonal translation and retrograde transport of endogenous CREB. (A) CREB levels in severed axons of E15 DRGs were assayed by immunofluorescence with a CREB-specific antibody. CREB was depleted on removal of NGF, with near complete loss of fluorescence signals by 3 hours. […] The error bars represent s.e.m. (n=40). (B) CREB is depleted from axon terminals in a microtubule-dependent manner. CREB levels in severed axons were monitored, as in A, after removal and restoration of NGF, in the presence of LLnL or colchicine. Colchicine, but not LLnL, blocked the reduction in CREB levels following removal of NGF. The error bars represent s.e.m. (n=40).
E15 rat or E13 mouse embryonic dorsal root ganglion (DRG) explants were plated on glass-bottom culture dishes (MatTek) or glass coverslips pre-coated with 33 μg/ml poly-D-lysine and 1 μg/ml laminin. CREB^α/Δ−/+ animals used to generate CREB^α/Δ−/− embryos were from Jackson Labs. E15 dissociated DRG neurons were prepared as described by Wu et al., Nature 436, 1020-1024 (2005). DRGs were cultured in B27/Neurobasal medium (Invitrogen) supplemented with 100 ng/ml nerve growth factor (NGF) and […] 5′-fluorodeoxyuridine (5-FdU) for 3 days. siRNA-mediated knockdown in DRG neurons has been described previously by Higuchi et al., Biochemical & Biophysical Research Communications 301, 804-809 (2003) and was performed using siRNAs listed in Table S3. For measurements of CREB levels in isolated axons, axons were severed from cell bodies by removing the explant with a flame-sharpened Pasteur pipette (Wu et al., Nature 436, 1020-1024 (2005)). Modified Boyden chambers were based on the procedure of Twiss (Zheng et al., Journal of Neuroscience 21, 9291-9303 (2001)) and modified to obtain distal axons as described by Wu et al., Nature 436, 1020-1024 (2005). mRNA from harvested axons (Wu et al., Nature 436, 1020-1024 (2005)) was used to prepare a cDNA library using a modified, unbiased single cell protocol as described below. See also Tietjen et al., Neuron 38, 161-175 (2003). Compartmented (Campenot) cultures were prepared as described below. See also Campenot, Proc Natl Acad Sci USA 74, 4516-4519 (1977)).
Images and measurements of signals in axons were taken from the terminal 50 μm of the axon, except where indicated. Analyzed axons were a minimum of 2000 μm for all experiments. DRGs were fixed with 4% PFA in CBS overnight at 4° C., permeabilized with 0.5% Triton X-100/TBS, and blocked in 4% BSA/TBS for 1 hour. DRGs were labeled with antibodies (Table S4) in 2% BSA/0.1% Triton X-100/TBS overnight at 4° C. For image acquisition details, see below.
The axonal localization of CREB was also examined by immunofluorescence. Axons were severed from cultured DRG explants to rule out potential contributions from anterograde transport of cell body-derived CREB. […] Although the majority of CREB protein localized to the nucleus, with substantially lower levels in axons (FIG. 4D), the immunofluorescence signal in axons was specific. Similar immunofluorescence staining was seen using a different CREB-specific antibody that recognized a non-overlapping epitope.
The importin proteins, which bind nuclear-localization sequences (NLS) (Goldfarb et al., Trends in Cell Biology 14, 505-514 (2004)), are present in axons and mediate the retrograde trafficking of axonally-injected fluorescently-labeled NLS peptides (Hanz et al., Neuron 40, 1095-1104 (2003)). Since CREB contains a NLS that mediates its nuclear localization (Waeber & Habener, Mol Endocrinol 5, 1418-1430 (1991)), axonal CREB may be retrogradely transported to the cell body. To determine if endogenously-expressed CREB is retrogradely trafficked, we examined the time course of CREB reduction in axons upon replacement of media with NGF-free media. […]

Assay [2] deals with E15 DRG explant cultures. The assay is described as follows: Retrograde transport of photoactivatable Dendra-CREB reporter. The following applies: in presence of inhibitor. How it is done:
FIGS. 8A-D are results showing the retrograde transport of a photoactivatable fluorescent CREB reporter protein. (A) E15 DRG explant cultures were infected with Sindbis constructs expressing Dendra or Dendra-CREB transcripts. Dendra and Dendra-CREB were visualized as green fluorescence (top panel), and growth cone-localized Dendra[-CREB] was photoactivated to its red form by 50 ms illumination of the boxed regions with a 408 nm laser. Movement of photoactivated Dendra signals was analyzed within the axon determined by green Dendra fluorescence mask. […] Photoactivated Dendra[-CREB] images are shown inverted in order to more readily visualize signals. Scale bar, 10 μm. (B) Quantification of data in (A). […] The expected diffusion rate of Dendra-CREB was calculated at various elapsed time points, using a previously measured diffusion coefficient (D) in neurons (Bloodgood & Sabatini, Science 310, 866-869 (2005)), in the formula x^2=(2Dt), where x is the average displacement. […] (C) Dendra or Dendra-CREB was photoactivated by 1 s illumination of a 40 μm axon segment approximately 1 mm from its respective cell body and levels of photoactivated Dendra fluorescence were analyzed in the respective cell nucleus. […] (D) Quantification of data in (C). n=10 cells per data point. *p=0.0012. […]

In assay [3] the test system is CREB reporter mRNA translation in DRG axons. The assay is described as follows: myr-dEGFP3′CREB Sindbis translation reporter in axons. To be noted: 40 μM LLnL, within 5 min, myr-dEGFP3′CREB-infected axons. The text has this: FIGS. 5A-C are results showing NGF-dependent translation of a CREB reporter mRNA in axons. (A) Schematic diagram of the Sindbis viral reporter construct used to monitor CREB translation. The reporter contains a myristoylated, destabilized EGFP (myr-dEGFP) with the 3′UTR of CREB, expressed under control of the Sindbis subgenomic promoter (PSG). (B) E15 DRG explant cultures were infected with Sindbis constructs expressing myr-dEGFP3′CREB on DIV3 and fluorescence (bottom panel) and phase (top panel) images, approximately 1000 μm from the cell body were collected after 24 hours. Fluorescence images are shown in inverted contrast in order to more readily visualize puncta. Scale bar, 25 μm. […] EGFP fluorescence co-localizes with a population of S6-labeled ribosomal clusters. […]
FIGS. 6A-H are data showing that axonal CREB is specifically translated in response to NGF. […] (B) E15 DRG explant cultures were infected with Sindbis constructs expressing myr-dEGFP3′RhoA or myr-dEGFP3′H1f0 on DIV3 and fluorescence images were collected after 24 h. […] (D) Axons from DIV3 DRGs were analyzed for CREB and mitochondrial localizations by immunofluorescence using CREB-specific and VDAC/porin1-specific antibodies. […] CREB mRNA was detected by FISH using a CREB specific riboprobe. […] (H) Axons of DIV3 DRG explant cultures were analyzed by immunofluorescence for NGF effectors CREB, pTrkA and pErk5 at 3 DIV. […]

Molecules are shown by their SMILES. Non-standard residues stand in square brackets, D forms with d. Residues, ends and D or L forms follow the SMILES beside them. Nle = CCCC[C@H](N)C(=O)O

As for `COc1cc2c(c(OC)c1OC)-c1ccc(OC)c(=O)cc1[C@@H](NC(C)=O)CC2` [colchicine], in assay [1], the “reduction of CREB levels upon removal of NGF” value is recorded as “abolished the reduction in CREB levels”. Moreover, the “retrograde transport of Dendra-CREB” value in assay [2] is listed as “significantly blocked”.

As for `CCCC[C@@H](C=O)NC(=O)[C@H](CC(C)C)NC(=O)[C@H](CC(C)C)NC(C)=O` [LLnL] (Ac-Leu-Leu-[Nle]-aldehyde), the eGFP fluorescence signal entry in assay [3] is “increased twofold”. In assay [1], the “reduction of CREB levels upon removal of NGF” value is “unaffected”.

`C=C(CC)C(=O)c1ccc(OCC(=O)O)c(Cl)c1Cl` [ethacrynic acid]: the “retrograde transport of Dendra-CREB” value in assay [2] is recorded as “significantly blocked”.

The record behind these values is US12103952B2, “Methods for expressing proteins in axons” (Cornell University, priority 2010, dated 2024).
